Laboratory results from publication PMC4433340 (PLoS Neglected Tropical Diseases, 2015).
Like-named read-outs stand apart in the source and are kept apart here.

Key:
[1] = tested on: intracellular T. cruzi amastigotes in EA.hy926 cells; assay: DAPI staining and intracellular amastigote quantification; assay type: cell-based, Trypanosoma cruzi; details: 5 μM simvastatin or 20 μM benznidazole for 24 hours before infection; counted after 72 hours
Method: 2x10^4 EA.hy926 cells/slide were seeded in Lab-Tek II Chamber Slides for 12 h. […] Then, the cells were washed and fixed in cold methanol (70%) overnight. The fixed cells were then washed, and 1 mL PBS (pH 7.4) was added. DNA was stained with DAPI (NucBlue; Molecular Probes, USA) following the manufacturer's instructions. The cells were photographed using a Nikon Eclipse 400 fluorescence microscope using 358 nm (excitation) and 461 nm (emission) wavelengths. In total, ten pictures were obtained per well, and each picture was counted using MATLAB software.
In Fig 3, total E-selectin (Fig 3A), ICAM-1 (Fig 3B) and VCAM-1 (Fig 3C) protein expression analyses are shown. […] To evaluate parasite load, DAPI-stained cells were photographed (20.12 ± 3.8 cells per photograph, 20 photographs per experimental condition; infected to uninfected cells ratio of 1:5) and the number of intracellular amastigotes was determined by manual count.

Trypomastigotes Dm28c = assay: Parasite viability by MTT reduction assay, trypomastigotes; assay type: cell-based; details: Trypanosoma cruzi, read-out: IC50, cellular viability, Trypomastigotes Dm28c
Method: T. cruzi trypomastigotes (Dm28c clone) from our collection, were obtained from infected EA.hy926 cells. Cells were exposed to trypomastigotes (Dm28c clone) at a multiplicity of infection (MOI) of 5. Trypomastigotes were allowed to infect cells for 24 hours, after which the supernatant was removed and fresh medium was added. Trypomastigotes were released from EA.hy926 cells after four days of infection. The parasites were harvested and collected for viability assays and further cell infections.
(§1) The effect of the drug on all cells and parasite viability was evaluated through the tetrazolium salt (MTT, Sigma-Aldrich) reduction assay as described. Drugs at concentrations ranging from 1 to 20 μM, dissolved in DMSO at a 0.025% v/v final concentration, were applied to 2.5x10^5 cells/mL or 10^6 parasite/mL culture medium. Cultures were incubated for 24 hours before adding MTT for 4 hours. The plates were incubated overnight with 10% SDS w/v in 0.01 M HCl at 37°C, and optical density (OD) was determined using a microplate reader (Labsystems Multiskan MS, Finland) at 570 nm. Under these conditions, the OD was directly proportional to viable cell number per well. All of the experiments were performed at least three times, and the data are shown as the means and their standard deviations from triplicate cultures.

[2] = tested on: HL-60 leukocyte adhesion to T. cruzi-infected endothelial cells; assay: Leukocyte-endothelium cell adhesion assay; assay type: cell-based, human; details: 5 μM simvastatin or 20 μM benznidazole for 24 hours before 16 hours infection; HL-60 leukocytes
Method: The leukocyte adhesion assay was performed with the Cytoselect Leukocyte-Endothelium Adhesion Assay kit (CBA-210; Cell Biolabs, USA). Briefly, EA.hy926 cells were cultured in 96-well plates that had been previously coated with gelatin for 1 hour. […] LeukoTracker-labeled leukocytes (HL60 cells) were added to the monolayer and incubated for 90 min. After thorough washing, cells were lysed, and fluorescence was measured at 480 nm excitation/520 nm emission. The percentage of adherent leukocytes was calculated: % adherence = adherent signal/total signal. All of the determinations were performed in triplicate using a fluorescence microplate reader (Varioskan, Thermo Scientific).

EA.hy926 cells = assay: Cell viability by MTT reduction assay, EA.hy926 cells; assay type: cell-based; details: Homo sapiens, EA.hy 926, 24 hours incubation, mean ± SD, n = 3, read-out: IC50, cellular viability, EA.hy926 cells
Method: EA.hy926 cells (ATCC CRL2922) are a human umbilical vein cell line established by fusing primary human umbilical vein cells with a thioguanine-resistant clone of A549 by exposure to polyethylene glycol (PEG). Hybrid clones were selected in HAT medium and screened for factor VIII-related antigen. The cell line was cultured following reported conditions. Cells were cultured on Iscove's Modified Dulbecco's Medium (IMDM, Biological Industries, Israel) supplemented with 10% v/v FBS, 100 U/mL penicillin, and […] streptomycin at 37°C and 5% CO2.
as §1, with “Drugs at concentrations ranging from 1 to 20 μM, dissolved in DMSO at a 0.025% v/v final concentration, were applied to 2.5x10^5 cells/mL or 10^6 parasite/mL culture medium.” left out

HL-60 cells = assay: Cell viability by MTT reduction assay, HL-60 cells; assay type: cell-based; details: Homo sapiens, 24 hours incubation, mean ± SD, n = 3, read-out: IC50, cellular viability, HL-60 cells
Method: HL-60 cells (ATCC CCL240) are a promyelocytic cell line that was derived by S.J. Collins et al. Peripheral blood leukocytes were obtained by leukapheresis from a person with acute promyelocytic leukemia. The cell line was cultured with Iscove's Modified Dulbecco's Medium plus 10% v/v FBS.
as §1, with “Drugs at concentrations ranging from 1 to 20 μM, dissolved in DMSO at a 0.025% v/v final concentration, were applied to 2.5x10^5 cells/mL or 10^6 parasite/mL culture medium.” left out

HUVEC = assay: Cell viability by MTT reduction assay, HUVEC; assay type: cell-based; details: Homo sapiens, 24 hours incubation, mean ± SD, n = 3, read-out: IC50, cellular viability, HUVEC
Method: HUVECs (C-015-10C, Cascade Biologics, Life Technologies, USA) are primary human umbilical vein endothelial cells that are pooled from multiple donors. Cells were cultured in medium 200 (Cascade Biologics, USA) that had been supplemented with low serum growth supplement (LSGS, Cascade Biologics).
as §1, with “Drugs at concentrations ranging from 1 to 20 μM, dissolved in DMSO at a 0.025% v/v final concentration, were applied to 2.5x10^5 cells/mL or 10^6 parasite/mL culture medium.” left out

With CCC(C)(C)C(=O)O[C@H]1C[C@@H](C)C=C2C=C[C@H](C)[C@H](CC[C@@H]3C[C@@H](O)CC(=O)O3)[C@H]21 [Simvastatin] the “Intracellular T. cruzi (amastigote) load” value [1] was “not affected”, the IC50 (Trypomastigotes Dm28c; MTT assay, 24 hours incubation, mean ± SD, n = 3) was 4.2 ± 1.06 µM and the “Leukocyte adhesiveness to infected endothelial cells” value [2] was “adhesiveness decreased”. For the same molecule, the IC50 (EA.hy926 cells) was 65.4 ± 1.02 µM, the IC50 (HL-60 cells) was 68 ± 1.11 µM and the IC50 (HUVEC) was 84.4 ± 1.56 µM.

With O=C(Cn1ccnc1[N+](=O)[O-])NCc1ccccc1 [Benznidazole] the “Intracellular T. cruzi (amastigote) load” value [1] was “not affected”, the IC50 (Trypomastigotes Dm28c; 24 h) was 20.8 ± 1.35 µM and the “Leukocyte adhesiveness to infected endothelial cells” value [2] was “adhesiveness decreased”. For the same molecule, the IC50 (EA.hy926 cells) was < 100 µM, the IC50 (HL-60 cells) was < 100 µM and the IC50 (HUVEC) was < 100 µM.
